The values that follow come from ChEMBL document CHEMBL1201862, “PubChem BioAssay data set” (2004).

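Step 1: Grow cells in 96-well plates. Step 2: Expose to compound for 48 hours at 5 concentrations. Step 3: Interpolate endpoints linearly; if unreached, use highest concentration. GI50 is the concentration that inhibits growth by half.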 Calls of active or inactive are those of the source. No stated cut-off is given here; in the data, active = GI50 up to about 1.1 µM and inactive = higher.

Test in all cases: inhibition of tumour cell growth, NCI panel, 48 h
Assay [1] deals with NCI-H522.
The subject of assay [2] is A498.
Assay [3] deals with OVCAR-5.
For assay [4], the system named is PC-3.
Assay [5] deals with MOLT-4.
The test system of assay [6] is NCI/ADR-RES.
In assay [7] the test system is SNB-19.
Assay [8] has as its system OVCAR-4.
The subject of assay [9] is TK-10.
In assay [10] the test system is SK-MEL-2.
For assay [11], the system named is OVCAR-3.
In assay [12] the test system is ACHN.
In assay [13] the test system is RPMI-8226.
For assay [14], the system named is CAKI-1.
The test system of assay [15] is UACC-257.
For assay [16], the system named is HCT-116.
The subject of assay [17] is MDA-MB-435.
In assay [18] the test system is NCI-H23.
Assay [19] deals with MCF7.
Assay [20] relates to Malme-3M.

`CN(C)CCNC(=O)c1ccc(NCCCN(C)CCCNc2ccc3c(=O)n(CCN(C)C)c(=O)n4c5ccccc5c(=O)c2c34)c2c(O)c3ccccc3nc12`: the GI50 is 10.2 nM (active) in assay [1]; 75.9 nM (active) in assay [2]; 19.2 nM (active) in [3]; < 10 nM (active) in [4]; < 10 nM (active) in assay [5]; 221 nM (active) in [6]. In addition, the GI50 in [7] was < 10 nM (active); in assay [8] it was < 10 nM (active); in [9], 47.1 nM (active); in assay [10], 31.5 nM (active); in assay [11], < 11 nM (active); in [12] it was < 10 nM (active). For the same compound, the GI50 is < 10 nM (active) in [13]; 25.8 nM (active) in assay [14]; 162 nM (active) in [15]; < 10 nM (active) in [16]; 12.4 nM (active) in [17]; < 14.6 nM (active) in [18]. Also, the GI50 was < 10 nM (active) in [19] and 27.1 nM (active) in [20].

As for `C=CC1=C(C)c2cc3[nH]c(c4c5nc(cc6[nH]c(cc1n2)c(C)c6CC)C(C)=C5C(=O)[C@@H]4C(=O)OC)[C@@H](CCC(=O)O)[C@@H]3C`, the GI50 in assay [1] was 7570 nM (inactive); in [2] it was 2550 nM (inactive); in assay [3] it was 3410 nM (inactive); in assay [4], 3620 nM (inactive); in [5], 1000 nM (active); in assay [6], 9020 nM (inactive). Further, the GI50 in assay [7] was 4090 nM (inactive); in assay [8] it was 2540 nM (inactive); in assay [9], 2820 nM (inactive); in assay [10], 4130 nM (inactive); in assay [11] it was 2040 nM (inactive); in assay [12] it was 2270 nM (inactive). Further, the GI50 was 2000 nM (inactive) in assay [13]; 9510 nM (inactive) in assay [14]; 5320 nM (inactive) in assay [15]; 8710 nM (inactive) in assay [16]; 2240 nM (inactive) in assay [17]; 2210 nM (inactive) in assay [18]. The figures for the GI50 in [19] and in assay [20] were 2980 nM (inactive) and 12200 nM (inactive), respectively.

Consider `COc1cc(/C=[N+](\[O-])c2ccccc2Cl)ccc1OC(=S)S`, for which the GI50 in assay [1] is 26500 nM (inactive); in [2] it was 18900 nM (inactive); in assay [3], > 100000 nM (inactive); in assay [4] it was 38200 nM (inactive); in [5] it was 27000 nM (inactive); in assay [6] it was 26700 nM (inactive). In addition, the GI50 was 55100 nM (inactive) in [7]; 3010 nM (inactive) in assay [8]; 64400 nM (inactive) in assay [9]; 32500 nM (inactive) in assay [10]; 30800 nM (inactive) in [11]; 34000 nM (inactive) in assay [12]. Moreover, the GI50 in [13] is 29200 nM (inactive); in assay [14] it was 31700 nM (inactive); in [15] it was 26400 nM (inactive); in [16], 32500 nM (inactive); in [17], 20800 nM (inactive); in assay [18] it was 28500 nM (inactive). In addition, the values for the GI50 in [19] and in assay [20] were 27600 nM (inactive) and 38400 nM (inactive), respectively.
